pEC50: −log10 of the molar value.
Assays:
[1] = system: SK-N-SH human neuroblastoma cells; assay: Serum Deprivation/JC-1 Mitochondrial Membrane Potential (MMP) Assay; format: cell-based; conditions: for Emax: 18 h, percent maximal JC-1 ratio normalized to the peak value for 10 μM dimebolin, read-out: JC-1 max %; for pEC50: JC-1 ratio after ~18 hours serum deprivation, single curve fit to mean data of n=2-3
Method: SK—N—SH human neuroblastoma cells obtained from American Type Culture Collection (Rockville, Md.) were maintained in the log phase of growth in Minimal Essential Media (MEM), 10% heat inactivated fetal calf serum and 100 units/mL antibiotic-antimycotic (AA). Cells were cultured and maintained in a humidified incubator at 37° C. under 5% CO2 and 95% air. Cells were trypsinized (0.25%) and subcultured every 3 days and used from 15-18 passages. All cell culture supplies were obtained from Invitrogen (Carlsbad, Calif.).
SK—N—SH cells were plated 2-3 days in advance at a concentration of 50,000 cells/well onto collagen coated black-walled 96 well plates (Becton-Dickinson, Bedford, Mass.) in a total volume of 200 μL. On day of experimental treatment, the media containing serum was aspirated from each well and rinsed once with MEM/1% AA without serum. The cells then were incubated overnight in 100 μL of MEM/1% AA (no serum) with and without dimebolin or novel chemical entities overnight for ˜18 hours. The following day, JC-1 dye (5,5′,6,6′-tetrachloro-1,1′,3,3′-tetraethylbenzimidazolcarbocyanide) was diluted 1:10 into MEM media according to the JC-1 Mitochondrial Membrane Potential Assay Kit: (Cayman Chemical Company, Ann Arbor, Mich.) and then 10 μL of the JC-1 dye solution was added to each well. The plates were centrifuged for 5 minutes at 400×g at room temperature followed by 40 minute incubation at 37° C. The plates were washed twice with 200 μL of provided Assay Buffer followed an addition of 100 μL of Assay Buffer to each well. The plates were read with an excitation and emission of 560 nm and 595 nM for red fluorescence and with an excitation and emission of […] and 535 nM for green fluorescence to determine the final JC-1 value taking the red to green fluorescence ratio. This assay is based on change in mitochondrial membrane potential (MMP) using this lipophilic cationic dye, JC-1, by monitoring the changes in the ratio of red to green fluorescence as the MMP depolarizes. This change in MMP reflects the health of the cell with healthy, viable cells have a high JC-1 ratio and high MMP whereas apoptotic, unhealthy cells have a low JC-1 ratio or low MMP.
For the ability of compounds to reverse the stress due to serum deprivation and increase the JC-1 ratio, the percent maximal intensity in JC-1 ratio was normalized to that induced by the peak value for 10 μM dimebolin and plotted against the compound concentration to calculate EC50 values and to control for plate-to-plate variability. Concentration-response data were analyzed using GraphPad Prism (San Diego, Calif.); the EC50 values were derived from a single curve fit to the mean data of n=2-3, in duplicates.
All compounds were dissolved in dimethyl sulfoxide at 10 mM stock solutions and tested at a concentration that the dimethyl sulfoxide levels never exceeded 1%.

[2] = system: primary postnatal (P0) cortical cells; assay: Neurite Outgrowth Assay (Aβ1-42 neuroprotection, high content microscopy); format: cell-based, rat; conditions: n = 3; for % Attenuation Effect of 5 μM Aβ 1-42: 5 μM Aβ1-42; for Emax: Rattus norvegicus, maximum response relative to 300 nM dimebolin, at the noted concentration, read-out: Maximum Effect (of % 300 nM Dimebolin) at Concentration; for Concentration (nM) at which the Maximum Effect was seen: test compound concentration of the maximum response
Method: In addition to PC12 cells, other cellular model systems may also be used. Rat cortical cells can be cultured and prepared for high content microscopy analysis as previously described (Hu, M.; Schurdak, M. E.; et al. High content screen microscopy analysis of Aβ1-42-induced neurite outgrowth reduction in rat primary cortical neurons: Neuroprotective effects of α7 neuronal nicotinic acetylcholine receptor ligands. Brain Res. 2007, 1151, 227-235.). Briefly, cortical cell cultures are plated at density of 5×10^5 cells/mL onto poly-D-lysine coated 96-well plates and maintained in a cell incubator at 37° C. with 5% CO2. Experiments are performed using 6-7 day-old cortical cell cultures by treating with test compounds. In some experiments, the effect of test compounds on reversing Aβ toxicity can also be measured (Hu, M.; Schurdak, M. E.; et al. High content screen microscopy analysis of Aβ1-42-induced neurite outgrowth reduction in rat primary cortical neurons: Neuroprotective effects of α7 neuronal nicotinic acetylcholine receptor ligands. Brain Res. 2007, 1151, 227-235.). For assessment of neuroprotective effects, cells are first pretreated with test compounds for about 5 hours. Medium is then replaced with the medium containing freshly prepared about 5 μM Aβ1-42 peptide in the absence or presence of the test compounds for 3 days. The untreated group contains the same percentage of vehicle (DMSO) as in the treatment groups. Cells are fixed with approximately 4% paraformaldehyde containing 0.5% Hoechst 33342 for about 15 minutes, followed by three washes using PBS (pH 7.4) and blocked with 10% donkey serum in PBS for 1 hour at room temperature. The cells are then incubated overnight at about 4° C. with mouse anti-tubulin monoclonal antibody (1:100) for staining neurons and rabbit anti-GFAP (1:1000) for staining glia. In the next day, cells are incubated with FITC-labeled anti-mouse and TRITC-labeled anti-rabbit antibodies (1:1000) for about 1 hour at room temperature. After fixing and staining the cells, nuclei (360/400 nm excitation and 465/300 nm emission filters), neuron (475/350 nm excitation and 535/400 nm emission filters) and glial cell (535 nm excitation and 610 nm emission filters) images are collected using the ImageExpress Micro automatic fluorescent microscopy system (Molecular Devices, Sunnyvale, Calif.) employing a Nikon 10x Plan Fluor objective and Cool Snap HQ CCD camera. The Neurite Outgrowth module in the MetaMorph Imaging software can be used to automatically count total cell number, number of neuron cells, and the extent of neurite outgrowth.
The neurite outgrowth observed for untreated cells is set to 100% response. Treatment of cells with compounds prior to and concomitantly with Aβ1-42 gave a neuroprotective effect with neurite outgrowth maintained or enhanced relative to untreated cells.

[3] = system: patients with mild-to-moderate Alzheimer's disease; conditions: cited from earlier work
[4] = system: primary rat cortical neurons; conditions: comparable to that evoked by BDNF; cited from earlier work

| SMILES | pEC50 [1] | Emax [1] [%] | further results |
| --- | --- | --- | --- |
| Cc1ccc(/C=C/c2cccc3c2N[C@@H]2CCN(C)C[C@H]32)cn1 (relative stereo) [Example 9, (cis)-2-methyl-6-[(E)-2-(6-methylpyridin-3-yl)vinyl]-2,3,4,4a,5,9b-hexahydro-1H-pyrido[4,3-b]indole] | 5.12 | 161 | – |
| Cc1ccc(/C=C/c2cccc3c4c([nH]c23)CCN(C)C4)cn1 [Example 1, 2-methyl-6-[(E)-2-(6-methylpyridin-3-yl)vinyl]-2,3,4,5-tetrahydro-1H-pyrido[4,3-b]indole] | 5.36 | 126 | % Attenuation Effect of 5 μM Aβ 1-42 [2]: 39 (n = 3) %; Emax [2]: 111%; Concentration (nM) at which the Maximum Effect was seen [2]: 30 nM |
| Cc1ccc(C#Cc2cccc3c4c([nH]c23)CCN(C)C4)cn1 [Example 2, 2-methyl-6-[(6-methylpyridin-3-yl)ethynyl]-2,3,4,5-tetrahydro-1H-pyrido[4,3-b]indole] | 4.97 | 176 | % Attenuation Effect of 5 μM Aβ 1-42 [2]: 57 (n = 3) %; Emax [2]: 129%; Concentration (nM) at which the Maximum Effect was seen [2]: 300 nM |
| Cc1ccc(CCc2cccc3c4c([nH]c23)CCN(C)C4)cn1 [Example 3, 2-methyl-6-[2-(6-methylpyridin-3-yl)ethyl]-2,3,4,5-tetrahydro-1H-pyrido[4,3-b]indole] | 5.12 | 115 | – |
| Cc1ccc2c(c1)c1c(n2CCc2ccc(C)nc2)CCN(C)C1 [dimebolin, 2,3,4,5-tetrahydro-2,8-dimethyl-5-[2-(6-methyl-3-pyridinyl)ethyl]-1H-pyrido[4,3-b]indole] | – | – | clinical course of disease, ADAS-Cog over baseline ([3]; 20 mg three times a day (60 mg/day)): significant improvement; most frequent adverse event ([3]; reported clinical studies): dry mouth; neurite outgrowth [4]: increase neurite outgrowth |

Now from value to compound, other results behind:

| pEC50 [1] | SMILES | Emax [1] [%] | further results |
| --- | --- | --- | --- |
| 5.05 | CN1CCc2[nH]c3c(C#Cc4cccnc4)cccc3c2C1 [Example 4, 2-methyl-6-(pyridin-3-ylethynyl)-2,3,4,5-tetrahydro-1H-pyrido[4,3-b]indole] | 199 | – |
| 5.36 | CN1CCc2[nH]c3c(C#Cc4ccncc4)cccc3c2C1 [Example 5, 2-methyl-6-(pyridin-4-ylethynyl)-2,3,4,5-tetrahydro-1H-pyrido[4,3-b]indole] | 103 | – |
| 5.38 | Cc1ccc(/C=C/c2cccc3c4c([nH]c23)CCNC4)cn1 [Example 6, 6-[(E)-2-(6-methylpyridin-3-yl)vinyl]-2,3,4,5-tetrahydro-1H-pyrido[4,3-b]indole] | 132 | – |
| 5.33 | Cc1ccc(CCc2cccc3c4c([nH]c23)CCNC4)cn1 [Example 7, 6-[2-(6-methylpyridin-3-yl)ethyl]-2,3,4,5-tetrahydro-1H-pyrido[4,3-b]indole] | 88 | – |
| 5.53 | CC(=O)N1CCc2[nH]c3c(/C=C/c4ccc(C)nc4)cccc3c2C1 [Example 8, 2-acetyl-6-[(E)-2-(6-methylpyridin-3-yl)vinyl]-2,3,4,5-tetrahydro-1H-pyrido[4,3-b]indole] | 155 | – |
| 5.49 | CCOC(=O)N1CCc2[nH]c3c(/C=C/c4ccc(C)nc4)cccc3c2C1 [Example 10, ethyl 6-[(E)-2-(6-methylpyridin-3-yl)vinyl]-1,3,4,5-tetrahydro-2H-pyrido[4,3-b]indole-2-carboxylate] | 146 | – |
| 5.29 | CCNC(=O)N1CCc2[nH]c3c(/C=C/c4ccc(C)nc4)cccc3c2C1 [Example 11, N-ethyl-6-[(E)-2-(6-methylpyridin-3-yl)vinyl]-1,3,4,5-tetrahydro-2H-pyrido[4,3-b]indole-2-carboxamide] | 186 | – |

From patent US8809532B2, “Aza-ring fused indole and indoline derivatives” (AbbVie Inc., priority 2009, dated 2014)
